{"source": "patent US7579515B2", "about": "“Increasing gamete production with a gene switch” (North Carolina State University, priority 2003, dated 2009)", "system": "transgenic mice carrying FSHβLCR/tet receptor plus tet operator/FSHβ gene", "experiment": "Ovulation (oocyte count) in FSHβ-switch transgenic female mice fed Dox", "type": "in vivo", "text": "Female mice (7 weeks old) were fed rat chow±Dox (6 gm/kg) and were put with males 6 days after feeding began. Females were checked for copulation plugs am and pm and were euthanized the morning plugs were found; uteri and ovaries were excised from each mouse and oocytes were freed from the ampulla and separated from cumulus cells with hyaluronidase (FIG. 3B). Oocytes were counted (see FIG. 3A). All Dox-fed mice ovulated within 5 days of male exposure except one (19 days) and it produced 90 oocytes. The sheep FSHβLCR was isolated along with its promoter in accordance with standard techniques and operatively associated with a new structural gene, the tet receptor, so that mice carrying this transgene expressed the tet receptor exclusively and strongly in pituitary gonadotropes. Linked to the […] was a second gene unit: the tet operator operatively associated with the structural gene for sheep FSHβ. […] The increase in FSHβ production created more FSH which increased ovulation by 2.4-fold (from an average of 12±0.5 to 29±4). Ovulation of this magnitude is matched only by time-consuming treatments with costly fertility hormones.", "data": [{"smiles": "C[C@H]1c2cccc(O)c2C(=O)C2=C(O)[C@]3(O)C(=O)C(C(N)=O)=C(O)[C@@H](N(C)C)[C@@H]3[C@@H](O)[C@@H]21", "note": "[doxycycline]", "values": [{"measurement": "time to ovulation after male exposure", "setting": "all Dox-fed mice except one (19 days)", "result": "≤ 5", "unit": "days"}, {"measurement": "oocytes produced by a single mouse", "setting": "the one Dox-fed mouse that ovulated at 19 days of male exposure, oocytes appeared normal", "result": 90}, {"measurement": "oocytes ovulated, average", "setting": "transgenic female mice, 7 weeks old, rat chow with Dox 6 gm/kg, put with males 6 days after feeding began, without Dox average 12±0.5", "result": "29±4"}, {"measurement": "increase in ovulation", "setting": "transgenic mice, ligand administered vs not administered", "result": 2.4, "unit": "fold"}]}]}
